Numbered stars: 1 amine (or outer) side, 2 acyl side, 3 side chain; on linkers, the order of the positions; unused ones are H or OH. Side chains are listed from the residue outwards. Peptide text beside a SMILES is read from it. * marks the point of attachment. C18 diacid = O=C(O)CCCCCCCCCCCCCCCCC(=O)*; γGlu = O=C(O)[C@H](CCC(=O)[*:2])N[*:1]; AEEA = NCCOCCOCC(=O)O
assay: Assay (II) PK i.v. minipig, in vivo half-life; parameters: species or system Göttingen mini-pigs; settings: male, Göttingen, iv, Table 2, PP(2-36) based, crude sample, i.v. minipig, read-out: Half-life minipig, Assay (II) (converted)
In short: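 Plasma levels after a single 6 nmol/kg intravenous dose in five male Göttingen mini-pigs were measured by TFC/LC/MS/MS against spiked-plasma calibration, sampling to 240 h. Vehicle: 50 mM K2HPO4, 0.05% tween 80, pH 8.0. Individual profiles analysed non-compartmentally for half-life.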

SMILES | half-life [h]
CC[C@H](C)[C@H](NC(=O)[C@H](Cc1ccc(O)cc1)NC(=O)[C@H](CCCNC(=N)N)NC(=O)[C@H](CCCNC(=N)N)NC(=O)[C@H](CC(C)C)NC(=O)[C@H](CC(=O)O)NC(=O)[C@H](C)NC(=O)[C@H](C)NC(=O)[C@H](Cc1ccc(O)cc1)NC(=O)[C@H](CCC(N)=O)NC(=O)[C@H](C)NC(=O)[C@H](CCSC)NC(=O)[C@H](CCC(N)=O)NC(=O)[C@H](CCC(=O)O)NC(=O)[C@@H]1CCCN1C(=O)[C@@H](NC(=O)[C@H](C)NC(=O)[C@H](CCCCNC(=O)COCCOCCNC(=O)COCCOCCNC(=O)CC[C@H](NC(=O)CCCCCCCCCCCCCCCCC(=O)O)C(=O)O)NC(=O)[C@H](CC(=O)O)NC(=O)CNC(=O)[C@@H]1CCCN1C(=O)[C@H](Cc1ccc(O)cc1)NC(=O)[C@@H](NC(=O)[C@@H]1CCCN1C(=O)[C@H](CCC(=O)O)NC(=O)[C@H](CC(C)C)NC(=O)[C@@H]1CCCN1)C(C)C)[C@@H](C)O)C(=O)N[C@@H](CC(N)=O)C(=O)N[C@@H](CCSC)C(=O)N[C@@H](CC(C)C)C(=O)N[C@H](C(=O)N[C@@H](CCCNC(=N)N)C(=O)N1CCC[C@H]1C(=O)N[C@@H](CCCNC(=N)N)C(=O)N[C@@H](Cc1ccc(O)cc1)C(N)=O)[C@@H](C)O [Compound W] | 29

same assay, conditions: male, Göttingen, minipig, iv, Half-life minipig, Assay (II)

SMILES | half-life [h]
CC[C@H](C)[C@H](NC(=O)[C@H](Cc1ccc(O)cc1)NC(=O)[C@H](CCCNC(=N)N)NC(=O)[C@H](CCCNC(=N)N)NC(=O)[C@H](CC(C)C)NC(=O)[C@H](CC(=O)O)NC(=O)[C@H](C)NC(=O)[C@H](C)NC(=O)[C@H](Cc1ccc(O)cc1)NC(=O)[C@H](CCC(N)=O)NC(=O)[C@H](C)NC(=O)[C@H](CCSC)NC(=O)[C@H](CCC(N)=O)NC(=O)[C@H](CCC(=O)O)NC(=O)[C@@H]1CCCN1C(=O)[C@@H](NC(=O)[C@H](C)NC(=O)[C@H](CC(N)=O)NC(=O)[C@H](CC(=O)O)NC(=O)CNC(=O)[C@@H]1CCCN1C(=O)[C@H](Cc1ccc(O)cc1)NC(=O)[C@@H](NC(=O)[C@@H]1CCCN1C(=O)[C@H](CCC(=O)O)NC(=O)[C@@H](N)CC(C)C)C(C)C)[C@@H](C)O)C(=O)N[C@@H](CC(N)=O)C(=O)N[C@@H](CCSC)C(=O)N[C@@H](CC(C)C)C(=O)N[C@@H](CCCCNC(=O)COCCOCCNC(=O)COCCOCCNC(=O)CC[C@H](NC(=O)CCCCCCCCCCCCCCCCC(=O)O)C(=O)O)C(=O)N[C@@H](CCCNC(=N)N)C(=O)N1CCC[C@H]1C(=O)N[C@@H](CCCNC(=N)N)C(=O)N[C@@H](Cc1ccc(O)cc1)C(N)=O [Compound AJ] (H-LEPVYPGDNATPEQMAQYAADLRRYINMLK([AEEA-AEEA-γGlu-C18 diacid])RPRY-NH2; N-terminus and C-terminus assumed) | 80
CC[C@H](C)[C@H](NC(=O)[C@H](Cc1ccc(O)cc1)NC(=O)[C@H](CCCNC(=N)N)NC(=O)[C@H](CCCNC(=N)N)NC(=O)[C@H](CC(C)C)NC(=O)[C@H](CC(=O)O)NC(=O)[C@H](C)NC(=O)[C@H](C)NC(=O)[C@H](Cc1ccc(O)cc1)NC(=O)[C@H](CCC(N)=O)NC(=O)[C@H](C)NC(=O)[C@H](CCSC)NC(=O)[C@H](CCC(N)=O)NC(=O)[C@H](CCC(=O)O)NC(=O)[C@@H]1CCCN1C(=O)[C@@H](NC(=O)[C@H](C)NC(=O)[C@H](CC(N)=O)NC(=O)[C@H](CC(=O)O)NC(=O)CNC(=O)[C@@H]1CCCN1C(=O)[C@H](Cc1ccc(O)cc1)NC(=O)[C@@H](NC(=O)[C@@H]1CCCN1C(=O)[C@H](CCC(=O)O)NC(=O)[C@@H](N)CC(C)C)C(C)C)[C@@H](C)O)C(=O)N[C@@H](CC(N)=O)C(=O)N[C@@H](CCCCNC(=O)COCCOCCNC(=O)COCCOCCNC(=O)CC[C@H](NC(=O)CCCCCCCCCCCCCCCCC(=O)O)C(=O)O)C(=O)N[C@@H](CC(C)C)C(=O)N[C@H](C(=O)N[C@@H](CCCNC(=N)N)C(=O)N1CCC[C@H]1C(=O)N[C@@H](CCCNC(=N)N)C(=O)N[C@@H](Cc1ccc(O)cc1)C(N)=O)[C@@H](C)O [Compound AL] (H-LEPVYPGDNATPEQMAQYAADLRRYINK([AEEA-AEEA-γGlu-C18 diacid])LTRPRY-NH2; N-terminus and C-terminus assumed) | 59
CC[C@H](C)[C@H](NC(=O)[C@H](Cc1ccc(O)cc1)NC(=O)[C@H](CCCNC(=N)N)NC(=O)[C@H](CCCNC(=N)N)NC(=O)[C@H](CC(C)C)NC(=O)[C@H](CC(=O)O)NC(=O)[C@H](C)NC(=O)[C@H](C)NC(=O)[C@H](Cc1ccc(O)cc1)NC(=O)[C@H](CCC(N)=O)NC(=O)[C@H](C)NC(=O)[C@H](CCSC)NC(=O)[C@H](CCC(N)=O)NC(=O)[C@H](CCC(=O)O)NC(=O)[C@@H]1CCCN1C(=O)[C@@H](NC(=O)[C@H](C)NC(=O)[C@H](CC(N)=O)NC(=O)[C@H](CC(=O)O)NC(=O)CNC(=O)[C@@H]1CCCN1C(=O)[C@H](Cc1ccc(O)cc1)NC(=O)[C@@H](NC(=O)[C@@H]1CCCN1C(=O)[C@H](CCC(=O)O)NC(=O)[C@@H](N)CC(C)C)C(C)C)[C@@H](C)O)C(=O)N[C@@H](CCCCNC(=O)COCCOCCNC(=O)COCCOCCNC(=O)CC[C@H](NC(=O)CCCCCCCCCCCCCCCCC(=O)O)C(=O)O)C(=O)N[C@@H](CCSC)C(=O)N[C@@H](CC(C)C)C(=O)N[C@H](C(=O)N[C@@H](CCCNC(=N)N)C(=O)N1CCC[C@H]1C(=O)N[C@@H](CCCNC(=N)N)C(=O)N[C@@H](Cc1ccc(O)cc1)C(N)=O)[C@@H](C)O [Compound AM] (H-LEPVYPGDNATPEQMAQYAADLRRYIK([AEEA-AEEA-γGlu-C18 diacid])MLTRPRY-NH2; N-terminus and C-terminus assumed) | 70

Next, values leading:

half-life [h] | SMILES
96 | CC[C@H](C)[C@H](NC(=O)[C@H](CCCCNC(=O)COCCOCCNC(=O)COCCOCCNC(=O)CC[C@H](NC(=O)CCCCCCCCCCCCCCCCC(=O)O)C(=O)O)NC(=O)[C@H](CCCNC(=N)N)NC(=O)[C@H](CCCNC(=N)N)NC(=O)[C@H](CC(C)C)NC(=O)[C@H](CC(=O)O)NC(=O)[C@H](C)NC(=O)[C@H](C)NC(=O)[C@H](Cc1ccc(O)cc1)NC(=O)[C@H](CCC(N)=O)NC(=O)[C@H](C)NC(=O)[C@H](CCSC)NC(=O)[C@H](CCC(N)=O)NC(=O)[C@H](CCC(=O)O)NC(=O)[C@@H]1CCCN1C(=O)[C@@H](NC(=O)[C@H](C)NC(=O)[C@H](CC(N)=O)NC(=O)[C@H](CC(=O)O)NC(=O)CNC(=O)[C@@H]1CCCN1C(=O)[C@H](Cc1ccc(O)cc1)NC(=O)[C@@H](NC(=O)[C@@H]1CCCN1C(=O)[C@H](CCC(=O)O)NC(=O)[C@H](CC(C)C)NC(=O)[C@@H]1CCCN1)C(C)C)[C@@H](C)O)C(=O)N[C@@H](CC(N)=O)C(=O)N[C@@H](CCSC)C(=O)N[C@@H](CC(C)C)C(=O)N[C@H](C(=O)N[C@@H](CCCNC(=N)N)C(=O)N1CCC[C@H]1C(=O)N[C@@H](CCCNC(=N)N)C(=O)N[C@@H](Cc1ccc(O)cc1)C(N)=O)[C@@H](C)O [Compound G] (H-PLEPVYPGDNATPEQMAQYAADLRRK([AEEA-AEEA-γGlu-C18 diacid])INMLTRPRY-NH2; N-terminus and C-terminus assumed)
16 | CC[C@H](C)[C@H](NC(=O)[C@H](Cc1ccc(O)cc1)NC(=O)[C@H](CCCNC(=N)N)NC(=O)[C@H](CCCNC(=N)N)NC(=O)[C@H](CC(C)C)NC(=O)[C@H](CC(=O)O)NC(=O)[C@H](C)NC(=O)[C@H](C)NC(=O)[C@H](Cc1ccc(O)cc1)NC(=O)[C@H](CCC(N)=O)NC(=O)[C@H](C)NC(=O)[C@H](CCSC)NC(=O)[C@H](CCC(N)=O)NC(=O)[C@H](CCC(=O)O)NC(=O)[C@@H]1CCCN1C(=O)[C@H](CCCCNC(=O)COCCOCCNC(=O)COCCOCCNC(=O)CC[C@H](NC(=O)CCCCCCCCCCCCCCCCC(=O)O)C(=O)O)NC(=O)[C@H](C)NC(=O)[C@H](CC(N)=O)NC(=O)[C@H](CC(=O)O)NC(=O)CNC(=O)[C@@H]1CCCN1C(=O)[C@H](Cc1ccc(O)cc1)NC(=O)[C@@H](NC(=O)[C@@H]1CCCN1C(=O)[C@H](CCC(=O)O)NC(=O)[C@@H](N)CC(C)C)C(C)C)C(=O)N[C@@H](CC(N)=O)C(=O)N[C@@H](CCSC)C(=O)N[C@@H](CC(C)C)C(=O)N[C@H](C(=O)N[C@@H](CCCNC(=N)N)C(=O)N1CCC[C@H]1C(=O)N[C@@H](CCCNC(=N)N)C(=O)N[C@@H](Cc1ccc(O)cc1)C(N)=O)[C@@H](C)O [Compound BC] (H-LEPVYPGDNAK([AEEA-AEEA-γGlu-C18 diacid])PEQMAQYAADLRRYINMLTRPRY-NH2; N-terminus and C-terminus assumed)
94 | CC[C@H](C)[C@H](NC(=O)[C@H](Cc1ccc(O)cc1)NC(=O)[C@H](CCCNC(=N)N)NC(=O)[C@H](CCCNC(=N)N)NC(=O)[C@H](CC(C)C)NC(=O)[C@H](CC(=O)O)NC(=O)[C@H](C)NC(=O)[C@H](C)NC(=O)[C@H](Cc1ccc(O)cc1)NC(=O)[C@H](CCC(N)=O)NC(=O)[C@H](C)NC(=O)[C@H](CCSC)NC(=O)[C@H](CCC(N)=O)NC(=O)[C@H](CCC(=O)O)NC(=O)[C@@H]1CCCN1C(=O)[C@@H](NC(=O)[C@H](C)NC(=O)[C@H](CC(N)=O)NC(=O)[C@H](CC(=O)O)NC(=O)CNC(=O)[C@@H]1CCCN1C(=O)[C@H](Cc1ccc(O)cc1)NC(=O)[C@@H](NC(=O)[C@@H]1CCCN1C(=O)[C@H](CCC(=O)O)NC(=O)[C@H](CC(C)C)NC(=O)[C@@H]1CCCN1)C(C)C)[C@@H](C)O)C(=O)N[C@@H](CC(N)=O)C(=O)N[C@@H](CCSC)C(=O)N[C@@H](CCCCNC(=O)COCCOCCNC(=O)COCCOCCNC(=O)CC[C@H](NC(=O)CCCCCCCCCCCCCCCCC(=O)O)C(=O)O)C(=O)N[C@H](C(=O)N[C@@H](CCCNC(=N)N)C(=O)N1CCC[C@H]1C(=O)N[C@@H](CCCNC(=N)N)C(=O)N[C@@H](Cc1ccc(O)cc1)C(N)=O)[C@@H](C)O [Compound C] (H-PLEPVYPGDNATPEQMAQYAADLRRYINMK([AEEA-AEEA-γGlu-C18 diacid])TRPRY-NH2; N-terminus and C-terminus assumed)

— patent US20150141336A1, “Pancreatic Peptide Compounds and Use” (Novo Nordisk A/S, priority 2012, published 2015)
